Our source for the relative viability values is the supplement of paper PMC10307832.

The subject of one test is NCI-H727. The test can be described thus: relative viability (nuclei count vs DMSO), 5 days (fraction); higher = more cells survive. As to conditions: first compound 0.2 µM. The procedure, abridged: (§1)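 Nuclei were stained with Hoechst during a one-step fixation (final 0.05% Triton X-100, 1% formaldehyde, 1 ug/ml Hoechst) carried out 5 days after dosing, then counted on 4× images. The cells, lung cancer lines in 1536-well plates, had been dosed by pin tool the day after seeding with one drug alone or a fixed anchor-drug dose plus five library-drug doses (not always all listed) in √10 steps. Relative viability is the nuclei count in treated wells divided by that in vehicle wells, and each value is the median of duplicate plates.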
For `COCC1(CO)C(=O)C2CCN1CC2` (stereo unspecified) [PRIMA-1MET] + CS(=O)(=O)N1CCN(Cc2cc3nc(-c4cccc5[nH]ncc45)nc(N4CCOCC4)c3s2)CC1 [Pictilisib] (partner 1 µM), the relative viability stood at 0.258.
Still for that read-out and setting: under `COCC1(CO)C(=O)C2CCN1CC2` (stereo unspecified) [PRIMA-1MET] + CS(=O)(=O)CCNCc1ccc(-c2ccc3ncnc(Nc4ccc(OCc5cccc(F)c5)c(Cl)c4)c3c2)o1 [Lapatinib] (partner 2 µM) stands 0.559.
Still for that read-out and setting: under `COCC1(CO)C(=O)C2CCN1CC2` (stereo unspecified) [PRIMA-1MET] + C[C@]1(O)C[C@@H](c2nc(-c3ccc4ccc(-c5ccccc5)nc4c3)c3c(N)nccn32)C1 [Linsitinib] (partner 1 µM) stands 0.386.
Turning to `COCC1(CO)C(=O)C2CCN1CC2` (stereo unspecified) [PRIMA-1MET] + COc1cc2c(Oc3ccc(NC(=O)C4(C(=O)Nc5ccc(F)cc5)CC4)cc3F)ccnc2cc1OCCCN1CCOCC1 [Foretinib] (partner 0.25 µM), the relative viability came to 0.636.
In turn, `COCC1(CO)C(=O)C2CCN1CC2` (stereo unspecified) [PRIMA-1MET] + Cc1nc(NC(=O)N2CCC[C@H]2C(N)=O)sc1-c1ccnc(C(C)(C)C(F)(F)F)c1 [Alpelisib] (partner 2 µM) returned a relative viability of 0.592.

Still in this test, the particulars now being: first compound 0.6325 µM.
`COCC1(CO)C(=O)C2CCN1CC2` (stereo unspecified) [PRIMA-1MET] + CS(=O)(=O)N1CCN(Cc2cc3nc(-c4cccc5[nH]ncc45)nc(N4CCOCC4)c3s2)CC1 [Pictilisib] (partner 1 µM) registered a relative viability of 0.341.
Still for that read-out and setting: the figure for `COCC1(CO)C(=O)C2CCN1CC2` (stereo unspecified) [PRIMA-1MET] + CS(=O)(=O)CCNCc1ccc(-c2ccc3ncnc(Nc4ccc(OCc5cccc(F)c5)c(Cl)c4)c3c2)o1 [Lapatinib] (partner 2 µM) is 0.769; for `COCC1(CO)C(=O)C2CCN1CC2` (stereo unspecified) [PRIMA-1MET] + C[C@]1(O)C[C@@H](c2nc(-c3ccc4ccc(-c5ccccc5)nc4c3)c3c(N)nccn32)C1 [Linsitinib] (partner 1 µM) it is 0.247; for `COCC1(CO)C(=O)C2CCN1CC2` (stereo unspecified) [PRIMA-1MET] + COc1cc2c(Oc3ccc(NC(=O)C4(C(=O)Nc5ccc(F)cc5)CC4)cc3F)ccnc2cc1OCCCN1CCOCC1 [Foretinib] (partner 0.25 µM) it is 0.674.
On the same count and under the same terms, under `COCC1(CO)C(=O)C2CCN1CC2` (stereo unspecified) [PRIMA-1MET] + Cc1nc(NC(=O)N2CCC[C@H]2C(N)=O)sc1-c1ccnc(C(C)(C)C(F)(F)F)c1 [Alpelisib] (partner 2 µM) stands 0.612.

The same test, now with this note: first compound 2 µM.
The compound `COCC1(CO)C(=O)C2CCN1CC2` (stereo unspecified) [PRIMA-1MET] + CS(=O)(=O)N1CCN(Cc2cc3nc(-c4cccc5[nH]ncc45)nc(N4CCOCC4)c3s2)CC1 [Pictilisib] (partner 1 µM) had a relative viability of 0.241.
On the same count and under the same terms, under `COCC1(CO)C(=O)C2CCN1CC2` (stereo unspecified) [PRIMA-1MET] + CS(=O)(=O)CCNCc1ccc(-c2ccc3ncnc(Nc4ccc(OCc5cccc(F)c5)c(Cl)c4)c3c2)o1 [Lapatinib] (partner 2 µM) stands 0.503.
On the same count and under the same terms, under `COCC1(CO)C(=O)C2CCN1CC2` (stereo unspecified) [PRIMA-1MET] + C[C@]1(O)C[C@@H](c2nc(-c3ccc4ccc(-c5ccccc5)nc4c3)c3c(N)nccn32)C1 [Linsitinib] (partner 1 µM) stands 0.301.
`COCC1(CO)C(=O)C2CCN1CC2` (stereo unspecified) [PRIMA-1MET] + COc1cc2c(Oc3ccc(NC(=O)C4(C(=O)Nc5ccc(F)cc5)CC4)cc3F)ccnc2cc1OCCCN1CCOCC1 [Foretinib] (partner 0.25 µM): the relative viability turned out to be 0.782.
`COCC1(CO)C(=O)C2CCN1CC2` (stereo unspecified) [PRIMA-1MET] + Cc1nc(NC(=O)N2CCC[C@H]2C(N)=O)sc1-c1ccnc(C(C)(C)C(F)(F)F)c1 [Alpelisib] (partner 2 µM) showed a relative viability of 0.568.

Staying with this test, now noted: first compound 6.325 µM.
Take `COCC1(CO)C(=O)C2CCN1CC2` (stereo unspecified) [PRIMA-1MET] + CS(=O)(=O)N1CCN(Cc2cc3nc(-c4cccc5[nH]ncc45)nc(N4CCOCC4)c3s2)CC1 [Pictilisib] (partner 1 µM): the relative viability is 0.178.
`COCC1(CO)C(=O)C2CCN1CC2` (stereo unspecified) [PRIMA-1MET] + CS(=O)(=O)CCNCc1ccc(-c2ccc3ncnc(Nc4ccc(OCc5cccc(F)c5)c(Cl)c4)c3c2)o1 [Lapatinib] (partner 2 µM) came in with a relative viability of 0.624.
Same read-out and setting: under `COCC1(CO)C(=O)C2CCN1CC2` (stereo unspecified) [PRIMA-1MET] + C[C@]1(O)C[C@@H](c2nc(-c3ccc4ccc(-c5ccccc5)nc4c3)c3c(N)nccn32)C1 [Linsitinib] (partner 1 µM) stands 0.356; under `COCC1(CO)C(=O)C2CCN1CC2` (stereo unspecified) [PRIMA-1MET] + COc1cc2c(Oc3ccc(NC(=O)C4(C(=O)Nc5ccc(F)cc5)CC4)cc3F)ccnc2cc1OCCCN1CCOCC1 [Foretinib] (partner 0.25 µM), 1.03.
Compound `COCC1(CO)C(=O)C2CCN1CC2` (stereo unspecified) [PRIMA-1MET] + Cc1nc(NC(=O)N2CCC[C@H]2C(N)=O)sc1-c1ccnc(C(C)(C)C(F)(F)F)c1 [Alpelisib] (partner 2 µM) showed a relative viability of 0.402.

The same test, now with this note: first compound 20 µM.
`COCC1(CO)C(=O)C2CCN1CC2` (stereo unspecified) [PRIMA-1MET] + CS(=O)(=O)N1CCN(Cc2cc3nc(-c4cccc5[nH]ncc45)nc(N4CCOCC4)c3s2)CC1 [Pictilisib] (partner 1 µM) returned a relative viability of 0.109.
The same measure, in the same setting: under `COCC1(CO)C(=O)C2CCN1CC2` (stereo unspecified) [PRIMA-1MET] + CS(=O)(=O)CCNCc1ccc(-c2ccc3ncnc(Nc4ccc(OCc5cccc(F)c5)c(Cl)c4)c3c2)o1 [Lapatinib] (partner 2 µM) stands 0.113; under `COCC1(CO)C(=O)C2CCN1CC2` (stereo unspecified) [PRIMA-1MET] + C[C@]1(O)C[C@@H](c2nc(-c3ccc4ccc(-c5ccccc5)nc4c3)c3c(N)nccn32)C1 [Linsitinib] (partner 1 µM), 0.169; under `COCC1(CO)C(=O)C2CCN1CC2` (stereo unspecified) [PRIMA-1MET] + COc1cc2c(Oc3ccc(NC(=O)C4(C(=O)Nc5ccc(F)cc5)CC4)cc3F)ccnc2cc1OCCCN1CCOCC1 [Foretinib] (partner 0.25 µM), 0.44.
Same read-out and setting: under `COCC1(CO)C(=O)C2CCN1CC2` (stereo unspecified) [PRIMA-1MET] + Cc1nc(NC(=O)N2CCC[C@H]2C(N)=O)sc1-c1ccnc(C(C)(C)C(F)(F)F)c1 [Alpelisib] (partner 2 µM) stands 0.0858.

The test system of the next test is PC-14. Described as above. Particulars: first compound 0.2 µM. The procedure, abridged:
as §1
With `COCC1(CO)C(=O)C2CCN1CC2` (stereo unspecified) [PRIMA-1MET] + CS(=O)(=O)N1CCN(Cc2cc3nc(-c4cccc5[nH]ncc45)nc(N4CCOCC4)c3s2)CC1 [Pictilisib] (partner 1 µM), the relative viability was determined as 0.813.
The same measure, in the same setting: under `COCC1(CO)C(=O)C2CCN1CC2` (stereo unspecified) [PRIMA-1MET] + CS(=O)(=O)CCNCc1ccc(-c2ccc3ncnc(Nc4ccc(OCc5cccc(F)c5)c(Cl)c4)c3c2)o1 [Lapatinib] (partner 2 µM) stands 0.396; under `COCC1(CO)C(=O)C2CCN1CC2` (stereo unspecified) [PRIMA-1MET] + C[C@]1(O)C[C@@H](c2nc(-c3ccc4ccc(-c5ccccc5)nc4c3)c3c(N)nccn32)C1 [Linsitinib] (partner 1 µM), 0.918; under `COCC1(CO)C(=O)C2CCN1CC2` (stereo unspecified) [PRIMA-1MET] + COc1cc2c(Oc3ccc(NC(=O)C4(C(=O)Nc5ccc(F)cc5)CC4)cc3F)ccnc2cc1OCCCN1CCOCC1 [Foretinib] (partner 0.25 µM), 1.01.
The same measure, in the same setting: under `COCC1(CO)C(=O)C2CCN1CC2` (stereo unspecified) [PRIMA-1MET] + Cc1nc(NC(=O)N2CCC[C@H]2C(N)=O)sc1-c1ccnc(C(C)(C)C(F)(F)F)c1 [Alpelisib] (partner 2 µM) stands 0.839.

The same test, now with this note: first compound 0.6325 µM.
Turning to `COCC1(CO)C(=O)C2CCN1CC2` (stereo unspecified) [PRIMA-1MET] + CS(=O)(=O)N1CCN(Cc2cc3nc(-c4cccc5[nH]ncc45)nc(N4CCOCC4)c3s2)CC1 [Pictilisib] (partner 1 µM), the relative viability was 0.724.
